Measurements as given in ChEMBL document CHEMBL1201862, “PubChem BioAssay data set” (2004).
One block for each molecule: values may come before it. Calls of active or inactive are those of the source.

Tests used:
[1] = biological target: T1, High affinity choline transporter 1 (Homo sapiens, UniProt Q9GZV3); experiment: human choline transporter blockers, potency – cell-based, 5-point CRC, membrane potential dye, dose response (AID 504840); type: functional
T1 sequence (Q9GZV3 whole entry): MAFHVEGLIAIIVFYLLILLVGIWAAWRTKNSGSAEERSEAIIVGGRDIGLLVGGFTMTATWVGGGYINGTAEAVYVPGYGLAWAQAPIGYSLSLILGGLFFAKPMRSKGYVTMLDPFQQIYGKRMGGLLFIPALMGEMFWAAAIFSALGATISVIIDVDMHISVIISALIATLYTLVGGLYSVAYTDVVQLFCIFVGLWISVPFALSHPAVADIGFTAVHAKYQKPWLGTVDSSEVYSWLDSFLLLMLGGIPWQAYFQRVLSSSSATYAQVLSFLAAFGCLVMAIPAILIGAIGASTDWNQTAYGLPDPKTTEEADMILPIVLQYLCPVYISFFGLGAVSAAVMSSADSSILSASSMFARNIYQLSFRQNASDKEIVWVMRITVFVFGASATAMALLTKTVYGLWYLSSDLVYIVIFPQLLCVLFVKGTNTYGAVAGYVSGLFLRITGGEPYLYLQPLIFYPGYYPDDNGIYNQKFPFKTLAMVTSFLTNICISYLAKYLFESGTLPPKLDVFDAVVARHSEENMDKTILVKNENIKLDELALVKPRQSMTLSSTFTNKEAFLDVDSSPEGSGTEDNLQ

H9c2 = experiment: cells; type: functional, cell-based; conditions: Rattus norvegicus, H9c2, Myocardium;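 note: confirmatory concentration-response retest of ultra-high-throughput screening hits for modulation of myocardial damage; cell death induced by hydrogen peroxide oxidative stress; compound pretreatment for 60 min then peroxide exposure for 2 h; potency is for protecting the cells against peroxide damage rather than for killing them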
[2] = biological target: T2, Polyadenylate-binding protein 1 (Homo sapiens, UniProt P11940); experiment: MLLE domain peptide-binding blockers, IC50 – biochemical, fluorescence polarization, FITC-PAM2 peptide, dose response (AID 602259); type: functional; conditions: read-out: IC50_Mean
T2 sequence (P11940 whole entry, the tested form may be a part): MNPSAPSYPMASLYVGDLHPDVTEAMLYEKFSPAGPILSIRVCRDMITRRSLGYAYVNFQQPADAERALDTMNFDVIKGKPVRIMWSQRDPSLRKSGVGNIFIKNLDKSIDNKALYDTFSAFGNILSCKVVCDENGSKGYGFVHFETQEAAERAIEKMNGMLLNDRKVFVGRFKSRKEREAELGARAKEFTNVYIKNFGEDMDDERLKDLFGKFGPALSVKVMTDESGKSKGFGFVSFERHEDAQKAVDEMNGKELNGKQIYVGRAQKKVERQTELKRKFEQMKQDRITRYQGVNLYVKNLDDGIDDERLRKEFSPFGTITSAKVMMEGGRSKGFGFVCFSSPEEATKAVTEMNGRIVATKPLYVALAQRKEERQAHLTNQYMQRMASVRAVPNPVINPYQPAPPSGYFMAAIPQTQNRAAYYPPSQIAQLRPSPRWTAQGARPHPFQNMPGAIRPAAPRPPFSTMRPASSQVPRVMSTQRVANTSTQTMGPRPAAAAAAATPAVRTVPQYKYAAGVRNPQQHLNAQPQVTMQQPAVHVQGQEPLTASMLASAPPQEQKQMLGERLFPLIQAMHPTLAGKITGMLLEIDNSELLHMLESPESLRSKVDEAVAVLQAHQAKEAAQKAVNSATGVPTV

[3] = biological target: T2, Polyadenylate-binding protein 1; experiment: MLLE binding blockers, Cy5 peptide tracer – biochemical, fluorescence polarization, Cy5-PAM2 peptide, secondary, miRNA deadenylation inhibitor project, dose response (AID 602260); type: functional; conditions: read-out: IC50_Mean
[4] = biological target: FAD-linked sulfhydryl oxidase ALR (Homo sapiens, UniProt P55789); experiment: ALR-catalysed DTT oxidation blockers – biochemical, H2O2 detection, luminescence, cherry-pick, dose response (AID 493248)
Sequence of FAD-linked sulfhydryl oxidase ALR (P55789 whole entry): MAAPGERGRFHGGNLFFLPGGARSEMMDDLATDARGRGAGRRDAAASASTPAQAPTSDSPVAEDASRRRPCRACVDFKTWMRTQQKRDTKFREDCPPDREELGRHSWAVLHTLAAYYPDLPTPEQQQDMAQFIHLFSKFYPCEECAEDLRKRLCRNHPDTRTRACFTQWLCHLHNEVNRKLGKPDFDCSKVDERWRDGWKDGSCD

[5] = blockade of melanocortin 4 receptor signaling – cell-based, plate reader, cherry pick, counter-screen for LGR2 antagonist project, dose response (AID 743444); type: functional;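 note: transfected HEK 293 cells stimulated with alpha-MSH peptide; potency of inhibitors of the alpha-MSH evoked signal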
[6] = blockers of bursicon-stimulated LGR2 cAMP reporter – cell-based, HEK293, CRE-luciferase reporter, cherry pick, set 2, dose response (AID 743343); type: functional;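 note: transfected cells were stimulated with diluted bursicon conditioned medium after compound addition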
[7] = A549 cell cytotoxicity, dose response, cytotoxicity control, plate reader, cherry-pick, antagonist series (AID 743412); type: functional, cell-based
[8] = DRD fibroblast viability loss – cell-based, non-viral oncogenic, luminescence, dose response (AID 1934); type: functional; conditions: Homo sapiens
BJ [9] = experiment: cells; type: functional, cell-based; conditions: Homo sapiens
BJ [10] = experiment: BJ-TERT-LT-ST fibroblast viability loss – cell-based, RAS-independent, luminescence, dose response (AID 1935); type: functional; conditions: Homo sapiens;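 note: BJ fibroblasts immortalized with TERT plus LT and ST oncogenes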
BJ [11] = experiment: BJ-TERT fibroblast viability loss – cell-based, RAS-independent, luminescence, dose response (AID 1933); type: functional; conditions: Homo sapiens
INS1 = experiment: INS-1E survival protection against cytokine death – cell-based, luminescence, retest, dose response (AID 449756); type: functional; conditions: Rattus norvegicus;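 note: cell death triggered by IL-1 beta plus TNF-alpha plus IFN-gamma mixture; protective hits raise ATP signal compared with cytokine alone wells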
[12] = NIH3T3 cell viability loss – ATP luminescence, mouse fibroblasts, counter-screen, dose response (AID 2010); type: functional, cell-based;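 note: cells exposed to compound for about 90 hours before reading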
[13] = Trypanosoma cruzi growth suppression in host cells – NIH3T3 host cells, beta-gal luminescence, confirmation (AID 2044); type: functional, cell-based;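 note: intracellular parasites grown in NIH/3T3 mouse fibroblasts as host cells; luminescent beta-galactosidase reporter signal from transgenic T. cruzi replicating inside host cells; inhibitors lower the luminescence signal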

Structure (SMILES): O=C(CCc1nc(O)c2ccccc2n1)N1CCN(c2ccccc2Cl)CC1
- IC50 (H9c2): > 79 µM (inactive)

Structure (SMILES): CCOc1ccc(CCNC(=O)c2cc3c(C)nccc3nc2O)cc1OCC
- IC50 (H9c2): > 79 µM (inactive)

Structure (SMILES): CCO/C(O)=C1/Sc2cc(C)ccc2N=C1C
- IC50 [2]: > 66 µM (inactive)
- IC50 [3]: > 66 µM (inactive)

Structure (SMILES): Cc1cccc(NC(=O)c2[nH]cnc2C(=O)NCC(=O)OCc2ccccc2)c1
- IC50 (H9c2): > 79 µM (inactive)

Structure (SMILES): c1ccc2nc3[nH]cnc3nc2c1
- IC50 [2]: > 66 µM (inactive)
- IC50 [3]: > 66 µM (inactive)

Structure (SMILES): Cc1ccc(N=C(S)C2=C(O)c3ccccc3N(C)S2(=O)=O)cc1
- IC50 [2]: > 66 µM (inactive)
- IC50 [3]: > 66 µM (inactive)

Structure (SMILES): COc1ccccc1N/C=C/c1onc(C)c1[N+](=O)[O-]
- AC50 [5]: 4.75 µM (active)
- AC50 [6]: 3.4 µM (active)
- AC50 [7]: > 52 µM (inactive)

Structure (SMILES): O=C1CCCc2cc3c(cc21)CC1(C3)Cc2cc3c(cc2C1)C(=O)CCC3
- EC50 [8]: 15.6 µM (active)
- EC50 (BJ [9]): 33 µM (active)
- EC50 (BJ [10]): 3.95 µM (inconclusive)
- EC50 (BJ [11]): 9.1 µM (active)

Structure (SMILES): CCn1c(-c2ccc(N(C)C)cc2)nc2ccccc21
- AC50 (INS1): 4.25 µM (active)
- EC50 [12]: > 60 µM (not active)
- AC50 [4]: 1.48 µM (active)
- EC50 [13]: 1.67 µM (active)

Structure (SMILES): CC(OC(=O)Cc1nnc(O)c2ccccc12)C(=O)Nc1ccc(F)cc1 (centres undefined)
- IC50 (H9c2): > 79 µM (inactive)

Structure (SMILES): COc1ccc(-c2ccc3c(c2)S(=O)(=O)c2cccc(C(=O)NC[C@@H]4CCCO4)c2C3=O)cc1OC
- IC50 (H9c2): > 79 µM (inactive)

Continued, values first:

- IC50 [1]: 12 µM (active)
Structure (SMILES): CCCOc1ccc(C(CC(=O)O)NC(=O)CC(c2ccccc2)c2ccccc2)cc1 (centres undefined)

- IC50 [2]: > 66 µM (inactive)
- IC50 [3]: > 66 µM (inactive)
Structure (SMILES): Cc1cc(C(F)(F)F)nc(SCC(=O)NC2=NC(=O)C(C)S2)n1 (centres undefined)

- AC50 [4]: 3.68 µM (active)
Structure (SMILES): Cc1ncsc1CCC(=O)N1CCCC(Nc2ccc(C(C)C)cc2)C1 (centres undefined)

- AC50 [4]: 35.5 µM (active)
Structure (SMILES): CN(C)c1ccc(/C=N/NC(=O)c2ccccn2)cc1

- IC50 [1]: 14.8 µM (active)
Structure (SMILES): CCOC(=O)c1cccc(NC(=O)CCS(=O)(=O)c2cccc3nsnc23)c1

- IC50 [1]: 11 µM (active)
Structure (SMILES): O=C(c1ccc(O)cc1)c1ccc(Cl)cc1
